Test results: patent US20220402862A1 (Intellia Therapeutics, Inc., priority 2019, published 2022)
Where “and” joins values, the source holds several entries; their conditions need not be identical. Identical values can stand only once.

How the values were obtained:
[1] = RNA encapsulation efficiency of LNPs (Ribogreen fluorescence assay); type: physicochemical; conditions: for Encapsulation (%) / % E: LNP; for Encapsulation (%): sg:mRNA 1:1, N/P about 6, amine lipid/DSPC/cholesterol/PEG-2k-DMG 50/9/38/3, Table 2, Experiments 2-20; for % E: sg:mRNA 1:1, N/P 6.0, 50/9/38/3, Table 4, Experiments 101-104
Outline: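 Encapsulation efficiency is (Total RNA − Free RNA)/Total RNA. Free RNA was quantified by RiboGreen fluorescence (488/525 nm, ~10 min, RT, dark) in plain TE buffer; total RNA was quantified after LNP lysis with 0.2% Triton X-100, both against RNA standard curves.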

[2] = Dynamic light scattering of LNPs: Z-average diameter, number average diameter, PDI; type: physicochemical
Outline: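 Values reported are the Z-average (intensity-weighted mean size), the number-average diameter and the PDI (spread of sizes, 0 = fully uniform). All three came from dynamic light scattering of LNP preparations after dilution in PBS.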

[3] = system: Transthyretin (TTR); test: Serum TTR ELISA in mice after LNP dosing; type: in vivo, CD-1 female mice
Outline: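 Serum mouse TTR was quantified by ELISA at 10,000-fold dilution for 0.1 mg/kg and 10,000/2,500-fold for 0.3 mg/kg. Samples came from female CD-1 mice (6–10 weeks) killed 6 or 7 days after a single intravenous LNP dose, usually 0.1 mg/kg.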

[4] = system: TTR rat gene; test: In vivo editing in rat liver, sgRNA targeting TTR (G534), % indel by NGS; parameters: species or system Sprague Dawley female rats; conditions: G534 sgRNA + Cas9 mRNA LNP, Experiment 109
Method: Sprague Dawley female rats ranging from 6-7 weeks of age were used in each study. Each animal was weighed and dosing solutions were prepared based on body weight. LNPs were dosed via the lateral tail vein in a volume of 0.35 mL per animal (approximately 2 mL per kilogram body weight). The animals were periodically observed for adverse effects for at least 24 hours post dose.
For studies measuring in vivo editing in liver, animals were dosed at 0.1 mg/kg or 0.3 mg/kg. Animals were euthanized by CO2 asphyxiation 6 days post dose. At necropsy, the liver was collected for editing analysis by NGS and blood was collected into serum separator tubes for serum TTR measurement.
(§1) In brief, to quantitatively determine the efficiency of editing at the target location in the genome, genomic DNA was isolated and deep sequencing was utilized to identify the presence of insertions and deletions introduced by gene editing.
(§2) PCR primers were designed around the target site (e.g., within B2M), and the genomic area of interest was amplified. Additional PCR was performed according to the manufacturer's protocols (Illumina) to add the necessary chemistry for sequencing. The amplicons were sequenced on an Illumina MiSeq instrument. The reads were aligned to the mouse or rat reference genome (e.g., GRCm38) after eliminating those having low quality scores. The resulting files containing the reads were mapped to the reference genome (BAM files), where reads that overlapped the target region of interest were selected and the number of wild type reads versus the number of reads which contain an insertion, substitution, or deletion was calculated.
(§3) The editing percentage (e.g., the “indel efficiency” or “percent indels”) was defined as the total number of sequence reads with insertions or deletions over the total number of sequence reads, including wild type.
In vivo delivery in a rat model was assessed by measuring editing efficiency for materials delivered with formulations including various amine lipid compounds. Cas9 mRNA (SEQ ID NO: 6) was formulated as LNPs with an sgRNA targetting the TTR rat gene (G534, SEQ ID NO: 5). LNPs were formulated and characterized as described in Example 123. Analysis of average particle size, polydispersity (PDI), total RNA content and encapsulation efficiency of RNA are shown in Table 10.
Sprague Dawley female rats were dosed i.v. at 0.1 or 0.3 mg/kg and assessed for editing in liver.

[5] = system: Transthyretin (TTR); test: Serum TTR measurement in rats after LNP dosing; type: in vivo, Sprague Dawley female rats; conditions: Experiment 109; for Serum TTR % TSS: rat serum TTR relative to TSS control; for Serum TTR: rat serum, G534 sgRNA + Cas9 mRNA LNP
[6] = pKa measurement of unformulated amine lipid (fluorescence, method of Jayaraman et al.); type: physicochemical; conditions: 100 μM in 0.1 M phosphate buffer, pH 2.0-12.0
Method: The pKa of each amine lipid was determined according to the method in Jayaraman, et al. (Angewandte Chemie, 2012) with the following adaptations. […] Lipid was diluted to 100 μM in 0.1 M phosphate buffer (Boston Bioproducts) where the pH ranged from 2.0-12.0. Fluorescence intensity was measured using excitation and emission wavelengths of 321 nm and 448 nm.

[7] = system: mouse TTR gene; test: In vivo editing in mouse liver, sgRNA targeting TTR (G282 or G502), % indel by NGS; parameters: species or system CD-1 female mice; conditions: guide G282, Experiments 101-103
Method: CD-1 female mice ranging from 6-10 weeks of age were used in each study. Animals were weighed and grouped according to body weight for preparing dosing solutions based on group average weight. LNPs were dosed via the lateral tail vein in a volume of 0.2 mL per animal (approximately 10 mL per kilogram body weight). The animals were periodically observed for adverse effects for at least 24 hours post dose. For studies measuring in vivo editing in liver, CD-1 female mice were dosed at 0.1 mg/kg unless otherwise noted. Animals were euthanized at 6 or 7 days by ex sanguination via cardiac puncture under isoflurane anesthesia. Liver tissue was collected from each animal for DNA extraction and analysis. Blood was collected into serum separator tubes or into tubes containing buffered sodium citrate for plasma as described herein. Cohorts of mice were measured for editing by Next-Generation Sequencing (NGS).
as §1, §2, §3
We assessed in vivo editing efficiency for materials delivered with formulations including various amine lipid compounds. Editing was measured using either G282 (SEQ ID No: 1) which targets the mouse TTR gene or G650 (SEQ ID No. 2) which targets the mouse B2M gene. Lipids described above were assessed for efficacy through in vivo editing experiments. LNPs were formulated at a 1:1 or 1:1.3 w/w ratio of sgRNA to Cas9 mRNA, and at an N/P ratio of about 6. Molar concentrations of lipids in the lipid component of the LNPs are used at mol % amine lipid/DSPC/cholesterol/PEG-2k-DMG of 50/9/38/3. The final LNPs were characterized to determine the encapsulation efficiency, polydispersity index, and average particle size according to the analytical methods provided above. Analysis of average particle size, polydispersity (PDI), total RNA content and encapsulation efficiency of RNA are shown in Table 2.
To assess whether the editing was dose responsive, experiments were performed in vivo at various LNP dose levels. Cas9 mRNA of Example 120 was formulated as LNPs with an sgRNA targeting TTR (G282, SEQ ID NO: 1; or G502, SEQ ID NO: 4).
We assessed in vivo delivery by measuring editing efficiency for materials delivered with formulations that included various amine lipid compounds. Cas9 mRNA (SEQ ID NO: 6) was formulated as LNPs with an sgRNA targetting the TTR mouse gene (SEQ ID NO: 4). LNPs were formulated at a 1:2 w/w ratio of sgRNA to Cas9 mRNA, and at an N/P ratio of about 6. Molar concentrations of lipids in the lipid component of the LNPs are used at mol % amine lipid/DSPC/cholesterol/PEG-2k-DMG of 50/9/38/3. The final LNPs compositions were characterized and analyzed as described in Example 120. Analysis of average particle size, polydispersity (PDI), total RNA content and encapsulation efficiency of RNA are shown in Table 6.

[8] = LNP with G534 sgRNA and Cas9 mRNA, sg:mRNA 1:2, experiment 109
[9] = LNP, sg:mRNA 1:1, N/P about 6, 50/9/38/3, Table 2, Experiments 2-20
[10] = LNP, sg:mRNA 1:1, N/P 6.0, 50/9/38/3, Table 4, Experiments 101-104
[11] = mouse, LNP i.v. 0.1 mg/kg, guide G282, Experiments 101-103
[12] = mouse, LNP i.v. 0.1 mg/kg, guide G282, Experiments 101-103, relative to TSS control
[13] = mouse, LNP i.v. 0.3 mg/kg, guide G282, Experiments 101-103
[14] = mouse, LNP i.v. 0.3 mg/kg, guide G282, Experiments 101-103, relative to TSS control

With `CCCCC/C=C\C/C=C\CCCCCCCC(=O)OCC(COC(=O)CCC(OCCCCCCCC)OCCCCCCCC)COC(=O)NCCN(CC)CC` (centres unmarked) [Compound 12, 3-((4,4-bis(octyloxy)butanoyl)oxy)-2-((((2-(diethylamino)ethyl)carbamoyl)oxy)methyl)propyl (9Z,12Z)-octadeca-9,12-dienoate] the “% E (encapsulation efficiency)” value [1, 8] was 97%, the “Encapsulation (%)” value [1] was 83% and the “Number mean (nm)” value [2, 8] was 62 nm. For the same compound, the PDI [2, 8] was 0.06, the “Z-avg (nm)” value [2, 8] was 80 nm and the “Number mean (nm)” value [2, 9] was 73.4 nm. The PDI [2, 9] was 0.007, the “Z-avg (nm)” value [2, 9] was 88.53 nm and the “Serum TTR % TSS” value ([3]; mouse serum TTR relative to TSS control, guide G282 experiments) was 81%. The “Serum TTR” value ([3]; mouse serum, guide G282 experiments, ELISA) was 736 µg/mL, the “Editing Mean % Indel” value ([4]; i.v. 0.1 mg/kg) was 37.6% and the “Editing Mean % Indel” value ([4]; i.v. 0.3 mg/kg) was 62.5%. For the same compound, the “Serum TTR % TSS” value ([5]; G534, i.v. 0.1 mg/kg) was 45.9 % TSS, the “Serum TTR % TSS” value ([5]; G534, i.v. 0.3 mg/kg) was 5.5 % TSS and the “Serum TTR” value ([5]; i.v. 0.1 mg/kg) was 744.2 µg/mL. The “Serum TTR” value ([5]; i.v. 0.3 mg/kg) was 89.1 µg/mL.

For `CCCCC/C=C\C/C=C\CCCCCCCC(=O)OCC(COC(=O)CCC(OCCCCCCCC)OCCCCCCCC)COC(=O)C1CCN(C)CC1` (centres unmarked) [Compound 31, 3-((4,4-bis(octyloxy)butanoyl)oxy)-2-((((9Z,12Z)-octadeca-9,12-dienoyl)oxy)methyl)propyl 1-methylpiperidine-4-carboxylate], the pKa [6] was 7.31, the “% E” value [1] was 99% and the “Encapsulation (%)” value [1] was 98% and 99%. The “Number mean (nm)” value [2, 10] was 61 nm, the PDI [2, 10] was 0.04 and the “Z-avg (nm)” value [2, 10] was 76 nm. For the same compound, the “Number mean (nm)” value [2, 9] was 58.67 nm and 59.35 nm, the “Z-avg (nm)” value [2, 9] was 75.11 nm and 73.65 nm and the “Editing Mean % Indel” value ([7]; LNP i.v. 0.1 mg/kg) was 13.5%. For the same compound, the “Editing Mean % Indel” value ([7]; LNP i.v. 0.3 mg/kg) was 50.7%, the “Serum TTR” value [3, 11] was 976 µg/mL and the “Serum TTR % TSS” value [3, 12] was 71%. For the same compound, the “Serum TTR” value [3, 13] was 226 µg/mL and the “Serum TTR % TSS” value [3, 14] was 17%.

For `CCCCCC/C=C\COC(=O)CCCCCCCC(=O)OCC(COC(=O)CCC(OCCCCCCCC)OCCCCCCCC)COC(=O)OCCCN(CC)CC` (centres unmarked) [Compound 54, (Z)-1-(3-((4,4-bis(octyloxy)butanoyl)oxy)-2-((((3-(diethylamino)propoxy)carbonyl)oxy)methyl)propyl) 9-(non-2-en-1-yl) nonanedioate], the pKa [6] was 6.4, the “% E” value [1] was 98% and the “Encapsulation (%)” value [1] was 98%. For the same compound, the “Number mean (nm)” value [2, 10] was 77.96 nm, the PDI [2, 10] was 0.032 and the “Z-avg (nm)” value [2, 10] was 96.98 nm. For the same compound, the “Number mean (nm)” value [2, 9] was 76.95 nm and 71.8 nm and 78.39 nm, the “Z-avg (nm)” value [2, 9] was 95.76 nm and 89.8 nm and 99.71 nm and the “Editing Mean % Indel” value ([7]; LNP i.v. 0.1 mg/kg) was 28.3%. The “Editing Mean % Indel” value ([7]; LNP i.v. 0.3 mg/kg) was 64.8%, the “Serum TTR” value [3, 11] was 449 µg/mL and the “Serum TTR % TSS” value [3, 12] was 49%. For the same compound, the “Serum TTR” value [3, 13] was 97 µg/mL and the “Serum TTR % TSS” value [3, 14] was 11%.
